Where a SMILES comes first, the peptide text is derived from it. Where no end group is shown, it is not given here. The star is where a group is joined. 5FAM = O=C1OC2(c3ccc(O)cc3Oc3cc(O)ccc32)c2ccc(C(=O)*)cc21; Palmitoyl = CCCCCCCCCCCCCCCC(=O)*
Tests used:
CoPoP liposomes = assay: Effect of His-tag length on peptide binding to CoPoP liposomes; settings: FAM-labeled peptides with varying His-tag length
Description: 1 μg of fluorescent reporter protein was incubated with 20 μg of liposomes in 200 μL PBS in a 96 well plate. Fluorescence in the FRET channel (ex: 430 nm, em: 525 nm) was measured periodically with a fluorescence microplate reader (Tecan Infinite II). Data were normalized to the FRET signal in the protein without addition of liposomes. EMSA experiments were performed with 2.5 μg protein incubated with 50 μg liposomes followed by electrophoresis in a 0.75% agarose gel with 50 V applied for 90 minutes and imaging with an IVIS Lumina II system with the indicated excitation and emission filters. For serum stability test, […] in 40u l PBS. After […], 40u l FBS was added and incubated for another 8 h (hours). For imidazole displacement experiments, 1 μg of reporter protein was bound to 20 μg liposomes in PBS. Imidazole was then titrated and binding was assessed with fluorescence. For serum stability, 1 μg of reporter protein was bound to 20 μg liposomes in 100 μL PBS and then an equal volume of fetal bovine serum (VWR #82013-602) was added and binding was monitored with fluorescence. Peptide binding was assessed with RGD-His FAM fluorophore quenching following incubation of 500 ng peptide with 20 μg liposomes.
The effect of His-tag length on peptide binding to CoPoP liposome was examined. A series of N-terminus FAM-labeled peptides was synthesized with varying lengths of His-tag attached to the C-terminus.

[1] = format: physicochemical; settings: not told
Description: PoP-liposomes were formulated at a 1 mg scale. After dissolving lipids in chloroform in a test tube, the solvent was evaporated and the film was further dried under vacuum overnight. Lipids were rehydrated with 1 mL of phosphate buffered saline (PBS), sonicated, subjected to 10 freeze-thaw cycles and then extruded through 100 nm polycarbonate membranes (VWR #28157-790) with a handheld extruder (Avanti #610000). For protein and peptide binding analysis, liposomes were formed with 10 mol % PoP along with 85 mol % DOPC (Avanti #850375P), and 5 mol % PEG-lipid (Avanti #880120P). […] Liposomes incorporating free Co-porphyrin included 10 molar % Co-pyropheophorbide with 85 mol % DOPC and 5 mol % PEG-lipid. Co-NTA-liposome was prepared using liposomes containing 10 mol % dioleoyl-gycero-NTA (Avanti #790528P). Liposomes were incubated with 20 mg/mL cobalt (II) chloride for 2 hours and then dialized in PBS. Sulforhodamine B loading liposomes contained 10 mol % PoP, 35 mol % cholesterol (Avanti #700000P), 55 mol % DOPC and PEG-lipid as indicated. […] For bilayer integrity and quantitative cell binding studies, 50 mM dye was used, whereas microscopy studies used 10 mM dye.
Given the binding efficacy of the His-tagged peptide to liposomes, bilayer integrity was assessed to determine whether peptide binding induces membrane destabilization. […]

U87 cells [2] = assay: Uptake of coated gold nanospheres (confocal reflectance/backscatter microscopy); format: cell-based; settings: free RGD
Description: For gold coating, 60 nm citrate-stabilized gold nanospheres (Ted Pella #15709-20) were used to hydrate a 1 mg lipid film composed of 45 mol % distearoyl phosphocholine (Avanti #850365P), 45 mol % distearoyl phosphoglycerol (Avanti #840465X) and 10 mol % PoP. Following brief vortexing and sonication, the samples were repeatedly centrifuged at 1500 relative centrifugal force (rcf) for 15 min. The supernatant was discarded and the pellet was resuspended and re-centrifuged 2 more times. PoP gold was resuspended in water for further analysis.
(§1) For confocal imaging, 10^4 cells were seeded overnight in a Nunc chamber slide (Nunc #155411) in DMEM with 10% fetal bovine serum (FBS). 20 μg of liposomes were added to the serum containing media and incubated for 2 h. Media was removed and the cells were washed with PBS 3 times. Fresh media was added and cells were imaged with microscopy using a Zeiss LSM 710 confocal fluorescence microscope. Gold imaging was carried out in the same way but 633 nm light was used for both excitation and emission for back scatter imaging. After peptide binding, gold was centrifuged to remove any unbound RGD peptide.
Liposomes represent only a subset of all the types of nanomaterials used in biomedical applications. CoPoP was assessed as a generalized surface coating with selective adhesion for His-tags. […]

U87 glioblastoma cells = assay: Targeted uptake of sulforhodamine B-loaded liposomes; format: cell-based; settings: excess free RGD peptide
Description: U-87 and MCF-7 cell lines were obtained from ATCC and cultured according to vendor protocol. 2×10^4 cells were seeded overnight in 96-well-plate wells. 500 ng RGD-His peptide was bound with 20 μg of sulforhodamine B loaded liposomes and liposomes were incubated with cells for 2 h. Media was removed, cells were washed with PBS 3 times and then cells and liposomes were lysed with a 1% Triton X-100 solution. Liposomal uptake was assessed by measuring the fluorescence of sulforhodamine B.
as §1, with “After peptide binding, gold was centrifuged to remove any unbound RGD peptide.” left out
Next, RGD-decorated liposomes were assessed whether they could bind to their molecular targets with the established cell-line pair of U87 glioblastoma cells (RGD-binding) and MCF7 breast cancer cells (RGD non-binding). […] Liposomal uptake was assessed by examining the fluorescence in the cells following washing and lysis (to remove any effects of cargo self-quenching). […]

U87 cells [3] = assay: Uptake of CoPoP liposomes bound to his-tagged cell penetrating peptides; format: cell-based; settings: 1 hour incubation; [2:5:30:63] [PoP:CoP:CHOL:DMPC]
From the text: In this example, CoPoP liposomes were targeted to cells via his-tagged cell penetrating peptides. The following his-tagged cell penetrating peptides were obtained: […] (SEQ ID NO:13) (TAT peptide); […] (SEQ ID NO:14) (R8 peptide); […] (SEQ ID NO:15) (PEN peptide).

[4] = test system: murine RAW 264.7 macrophage cells; assay: DY-490-OspA uptake by macrophage cells; format: cell-based; settings: 2 hr incubation
Description: FIG. 24. Assessing epitope availability and stability of antigen-functionalized nanoliposomes. (A) Stability of nanoliposome-antigen particles in 20% (v/v) human serum based on fluorescence quenching assay. (B) Immunoprecipitation of OspA-bound liposomes by OspA-specific monoclonal antibody LA-2. (C) DY-490-OspA uptake by murine RAW 264.7 macrophage cells following 2 hr incubation with indicated samples. Cytochalasin B was supplemented to medium 1 hr prior to incubation. Error bars represent standard deviations for n=3 experiments.
Practical utility of liposomes as antigen delivery vesicles is attributed from its enhanced uptake by antigen presenting cells. […] The macrophage selective uptake of PoP/PHAD liposomes in the mixed form further implicates that physical association of antigen to liposomes may be necessary for liposomal adjuvanticity. Co-delivery of surface-exposed antigen and immunostimulant to immune cells is an important facet of the CoPoP/PHAD liposome. Cellular uptake mechanism via phagocytosis is supported by the diminished uptake for both antigen and liposome in the presence of cytochalasin B.

his-tagged OspA = biological target: T1, his-tagged OspA (Borreliella burgdorferi, UniProt P0CL66); assay: OspA binding to CoPoP/PHAD liposomes (native PAGE, microBCA); set-up: species or system Borrelia burgdorferi; settings: microBCA assay of supernatant after high speed centrifugation
T1 construct: made in house; host or cells: E. coli
T1 sequence (P0CL66 17-273): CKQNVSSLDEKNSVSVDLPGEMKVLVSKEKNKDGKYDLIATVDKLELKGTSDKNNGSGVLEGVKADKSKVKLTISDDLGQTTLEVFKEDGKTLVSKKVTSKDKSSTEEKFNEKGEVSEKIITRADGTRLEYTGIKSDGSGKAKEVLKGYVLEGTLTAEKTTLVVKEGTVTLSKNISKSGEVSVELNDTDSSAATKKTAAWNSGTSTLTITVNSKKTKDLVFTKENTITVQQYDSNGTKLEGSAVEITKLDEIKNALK
Description: FIG. 23. […] (D) Hydrodynamic diameter and polydispersity index of liposomes measured using dynamic light scattering. […] Acquisitions were made 3 hr after incubation of liposomes with protein. Error bars represent standard deviations for n=3 measurements.
Spontaneous formation of the proteoliposomes occurs via insertion of the histidine tag into the hydrophobic bilayer and subsequent coordination of the imidazole moiety to the metal center. Binding conditions for were evaluated using native electrophoresis, which allows physical separation of liposome-bound and free proteins due to the limiting pore size of the acrylamide gel. Observed optimum binding mass ratio of 4:1 of PHAD:OspA (FIG. 23A) is consistent with previous studies using the malaria antigen, Pfs25. […] It can be deduced that the initial phase of binding occurred at a fast rate based from the relative band intensities for time points, 0 and 15 min. At the particleization conditions, specific binding is estimated to be about 80% based from microBCA assay of the supernatant obtained from high speed centrifugation (FIG. 23C).

In the case of “5-FAM-KKGGGG (SEQ ID NO: 5) (5FAM-KKGGGG) [0-His]”, the “binding t1/2” value (CoPoP liposomes) is reported as “no peptide binding was observed”.
In the case of “5-FAM-KKGGGGHH (SEQ ID NO: 6) (5FAM-KKGGGGHH) [2-His]”, the “binding t1/2” value (CoPoP liposomes) is reported as about 10 h.
For “5-FAM-KKGGGGHHHHHH (SEQ ID NO: 8) (5FAM-KKGGGGHHHHHH) [6-His]”, the “binding t1/2” value (CoPoP liposomes) was “less than one hour”.
For “5-FAM-KKGGGGHHHHHHHHHH (SEQ ID NO: 10) (5FAM-KKGGGGHHHHHHHHHH) [10-His]”, the “binding t1/2” value (CoPoP liposomes) was 0.333 h.
For CCCCCCCCCCCCCCCC(=O)NCCCC[C@H](NC(=O)CNC(=O)[C@H](CCCCN)NC(=O)[C@H](C)NC(=O)CNC(=O)[C@H](C)NC(=O)CNC(=O)[C@H](CCCCN)NC(=O)[C@@H]1CCCN1C(=O)[C@H](CO)NC(=O)[C@H](CC(=O)O)NC(=O)CNC(=O)[C@H](CCCNC(=N)N)NC(=O)CNC(=O)c1ccc2c(c1)C(=O)OC21c2ccc(O)cc2Oc2cc(O)ccc21)C(=O)O [RGD-palm] (5FAM-GRGDSPKGAGAKGK(Palmitoyl)-OH; C-terminus assumed), the “membrane permeabilization by lipopeptide” value [1] was “permeabilization of cargo-loaded liposomes”.
In the case of GRGDSPK (SEQ ID NO: 2) [Free RGD], the “inhibition of gold nanoparticle binding” value (U87 cells [2]) is reported as “inhibited the binding” and the “inhibition of targeted liposome binding” value (U87 glioblastoma cells) is reported as “Binding could be inhibited”.
For “HHHHHHHGRKKRRQRRRPPQ (SEQ ID NO:13) (cell penetrating peptide) [TAT peptide]”, the “binding and uptake of peptide-bound CoPoP liposomes” value (U87 cells [3]) was “could bind and get uptaken”.
In the case of “HHHHHHHRQIKIWFQNRRMKWKK (SEQ ID NO:15) (cell penetrating peptide) [PEN peptide]”, the “binding and uptake of peptide-bound CoPoP liposomes” value (U87 cells [3]) is reported as “could bind and get uptaken”.
In the case of “HHHHHHHRRRRRRRR (SEQ ID NO:14) (cell penetrating peptide) [R8 peptide]”, the “binding and uptake of peptide-bound CoPoP liposomes” value (U87 cells [3]) is reported as “could bind and get uptaken”.
With “OspA: his-tagged OspA based on the B31 strain protein sequence without the lipid tail, free non-adjuvanted” the antigen uptake [4] was “Minimal uptake”.
In the case of “lysozyme: a non-histidine tagged protein”, the specific binding (his-tagged OspA) is reported as “failed to bind”.

From patent US11207421B2, “Nanostructures comprising cobalt porphyrin-phospholipid conjugates and polyhistidine-tags” (The Research Foundation for The State University of New York, priority 2015, dated 2021)
